Assay results from patent US20250288561A1, “NEZULCITINIB FOR DELIVERY BY NEBULIZED ORAL INHALATION” (THERAVANCE BIOPHARMA R&D IP, LLC, priority 2022, published 2025).
Like-named read-outs stand apart in the source and are kept apart here.

Legend:
[1] = Earlier phase 1 clinical trial, nebulized inhalation: plasma pharmacokinetics; assay type: in vivo, human; details: for maximal plasma exposure, fold lower than the protein-adjusted JAK IC50: inhaled
Procedure: (§1) Compound 1 was evaluated in a phase 1 clinical trial and dosed in humans through nebulized inhalation at 1 mg, 3 mg, and 10 mg for up to 7 days. […] The pharmacokinetics of inhaled compound 1 are consistent with low plasma exposures after inhaled administration. […] Additionally, absolute NK cell counts were evaluated after multiple-dosing to assess the potential for systemic pharmacologic effects associated with JAK inhibition by compound 1. […] The lack of reduction in NK cell counts is also consistent with the lack of systemic JAK inhibition. […] Other systemically mediated hematological changes associated with JAK inhibition, including neutrophil and hemoglobin reductions as well as lipid changes, were not observed with inhaled administration of compound 1.
The selected dose of 3 mg in the present study was consistent with the dose in a recently completed Phase 2 study. In addition, the 3 mg dose ensured adequate characterization of the nezulcitinib PK profile. Dose levels up to 9 mg of nezulcitinib were also evaluated (Administration D2). This dose level was within the range of doses tested previously (up to 10 mg of nezulcitinib) in healthy participants and those with COVID-19 in previous clinical studies.

[2] = tested on: NK cells; experiment: Earlier phase 1 clinical trial: absolute NK cell counts after multiple dosing; assay type: in vivo, human; details: any dose level (1, 3, or 10 mg)
Procedure: as §1

[3] = tested on: IFNγ signaling; experiment: Inhibition of cytokine signaling; assay type: cell-based
[4] = Phase 1 open-label study: plasma PK of single inhaled nezulcitinib doses under supplemental oxygenation scenarios; assay type: in vivo, human; details: for AUC % extrap / CL/F / DN AUC0-inf / DN AUC0-t / DN Cmax / Kel / Tmax / AUC(0-inf) / Cmax / AUC(0-t) / Vd/F / half-life: plasma; for AUC % extrap / CL/F / DN AUC0-inf / DN AUC0-t / DN Cmax / Kel / AUC(0-inf) / Cmax / AUC(0-t) / Vd/F / half-life: arithmetic mean; for Tmax: median; for Vd/F: read-out: Vz/F; for half-life: read-out: t½ (converted)
Text: Part A: assessed the plasma PK of nezulcitinib following single inhaled doses administered in the setting of various supplemental oxygenation scenarios in healthy participants.
This was a Phase 1, open-label, fixed-sequence, 4-period study to evaluate the PK and safety of single inhaled doses of nezulcitinib, administered under different supplemental oxygenation scenarios.
Participants received a single inhaled dose of nezulcitinib using a nebulizer device on Day 1 of each administration period, under different supplementary oxygenation conditions and under fasting conditions.
Administrations were as follows: • Administration A (test): 3 mg nezulcitinib delivered by nasal inhalation via the Aerogen Solo integrated with a high-flow nasal cannula circuit delivering supplemental oxygen at a flow rate of 30 L/min. • Administration B (reference): 3 mg nezulcitinib delivered by oral inhalation via the Aerogen Solo coupled with the Aerogen Ultra handheld device, in the presence of supplemental oxygen delivery via low-flow nasal cannula at 6 L/min. • Administration C (test): 3 mg nezulcitinib delivered by oral inhalation via the Aerogen Solo coupled with the Aerogen Ultra handheld device, in the presence of supplemental oxygen delivery via high-flow nasal cannula at a flow rate of 30 L/min. • Administration D1 (test): 3 mg nezulcitinib delivered by oral inhalation via the Aerogen Solo coupled with the Aerogen Ultra handheld device, in the presence of supplemental oxygen delivery via high-flow nasal cannula at a flow rate of 50 L/min. • Administration D2 (test): 9 mg nezulcitinib delivered by oral inhalation via the Aerogen Solo coupled with the Aerogen Ultra handheld device, in the presence of supplemental oxygen delivery via high-flow nasal cannula at a flow rate of 50 L/min.
Serial blood samples were collected prior to and until 48 hours following dosing on Day 1 of each period to determine the concentration of nezulcitinib in plasma.
The following non-compartmental PK parameters were calculated for nezulcitinib, as appropriate:
• AUC0-t: The area under the concentration time curve, from time 0 to the last observed non-zero concentration, as calculated by the linear trapezoidal method. • AUC0-24: The area under the concentration time curve, from time 0 to the 24 hour time point, as calculated by the linear trapezoidal method. • AUC0-inf: The area under the concentration time curve from time 0 extrapolated to infinity. AUC0-inf was calculated as the sum of AUC0-t plus the ratio of the last measurable plasma concentration to the elimination rate constant. • AUC % extrap: Percent of AUC0-inf extrapolated, represented as (1−AUC0-t/AUC0-inf)*100. • CL/F: Apparent total plasma clearance after oral (extravascular) administration, calculated as Dose/AUC0-inf. • Cmax: Maximum observed concentration. • Tmax: Time to reach Cmax. If the maximum value occurs at more than one time point, Tmax is defined as the first time point with this value. • Kel: Apparent first order terminal elimination rate constant calculated from a semi-log plot of the plasma concentration versus time curve. The parameter was calculated by linear least-squares regression analysis using the maximum number of points in the terminal log-linear phase (e.g., three or more non-zero plasma concentrations). • t1/2: Apparent first-order terminal elimination half-life was calculated as 0.693/Kel. • Vz/F: Apparent volume of distribution during the terminal elimination phase after oral (extravascular) administration, calculated as Dose/(AUC0-inf*Kel).

[5] = Administration A: single 3 mg, nasal inhalation via high-flow nasal cannula circuit, oxygen 30 L/min
[6] = Administration B: single 3 mg, oral inhalation, low-flow nasal cannula oxygen 6 L/min
[7] = Administration C: single 3 mg, oral inhalation, high-flow nasal cannula oxygen 30 L/min
[8] = Administration D1: single 3 mg, oral inhalation, high-flow nasal cannula oxygen 50 L/min
[9] = Administration D2: single 9 mg, oral inhalation, high-flow nasal cannula oxygen 50 L/min
[10] = human, inhaled or intranasal, 3 mg, Administration A: single 3 mg, nasal inhalation via high-flow nasal cannula circuit, oxygen 30 L/min
[11] = human, inhaled, 3 mg, Administration B: single 3 mg, oral inhalation, low-flow nasal cannula oxygen 6 L/min
[12] = human, inhaled, 3 mg, Administration C: single 3 mg, oral inhalation, high-flow nasal cannula oxygen 30 L/min
[13] = human, inhaled, 3 mg, Administration D1: single 3 mg, oral inhalation, high-flow nasal cannula oxygen 50 L/min
[14] = human, inhaled, 9 mg, Administration D2: single 9 mg, oral inhalation, high-flow nasal cannula oxygen 50 L/min

For `CCc1cc(O)ccc1-c1ccc2c(-c3nc4c([nH]3)CN(C(C)C)[C@H](C(=O)N3CC(N(C)C)C3)C4)n[nH]c2c1` [Compound 1, (S)-(3-(dimethylamino)azetidin-1-yl)(2-(6-(2-ethyl-4-hydroxyphenyl)-1H-indazol-3-yl)-5-isopropyl-4,5,6,7-tetrahydro-3H-imidazo[4,5-c]pyridin-6-yl)methanone], the “maximal plasma exposure, fold lower than the protein-adjusted JAK IC50” value ([1]; dose level 3 mg) was “about 20 fold”, the “maximal plasma exposure, fold lower than the protein-adjusted JAK IC50” value ([1]; dose level 10 mg) was “about 7 fold” and the “plasma Cmax relative to the binding-corrected JAK IC50” value ([1]; nebulized inhalation at 1 mg, 3 mg and 10 mg for up to 7 days) was “well under the binding-corrected JAK IC50”. The “dose proportionality of systemic exposure (AUC0-24) and Cmax” value ([1]; single and multiple doses, 1 to 10 mg) was “increased in a dose proportional manner”, the “absolute NK cell counts relative to baseline” value [2] was “No reductions in NK cells were observed” and the “inhibition of IFNγ signaling” value [3] was “shown to inhibit”. For the same compound, the “plasma concentrations, effect of increasing flow rate from 30 L/min (Administration C) to 50 L/min (Administration D1)” value ([4]; 3 mg oral inhalation) was “did not impact the plasma concentrations”, the “plasma concentrations, Administration C compared to Administration A” value ([4]; 3 mg oral inhalation with high-flow 30 L/min vs 3 mg nasal through the high-flow circuit 30 L/min, FIG. 3) was “sustained increased plasma concentrations” and the AUC % extrap [4, 5] was 4.451%. The CL/F [4, 5] was 526.8 L/h, the “DN AUC0-inf” value [4, 5] was 2.586 ± [ng*hr/mL]/mg and the “DN AUC0-t” value [4, 5] was 2.480 ± [ng*hr/mL]/mg. For the same compound, the “DN Cmax” value [4, 5] was 0.5610 ± [ng/mL]/mg, the Kel [4, 5] was 0.07122 ± 1 h⁻¹ and the Tmax [4, 5] was 1.000 h. For the same compound, the AUC % extrap [4, 6] was 3.152%, the CL/F [4, 6] was 287.0 L/h and the “DN AUC0-inf” value [4, 6] was 18.00 ± [ng*hr/mL]/mg. For the same compound, the “DN AUC0-t” value [4, 6] was 17.46 ± [ng*hr/mL]/mg, the “DN Cmax” value [4, 6] was 4.658 ± [ng/mL]/mg and the Kel [4, 6] was 0.07667 ± 1 h⁻¹. For the same compound, the AUC % extrap [4, 7] was 3.898%, the CL/F [4, 7] was 128.9 L/h and the “DN AUC0-inf” value [4, 7] was 18.24 ± [ng*hr/mL]/mg. For the same compound, the “DN AUC0-t” value [4, 7] was 17.69 ± [ng*hr/mL]/mg, the “DN Cmax” value [4, 7] was 4.725 ± [ng/mL]/mg and the Kel [4, 7] was 0.04804 ± 1 h⁻¹. For the same compound, the AUC % extrap [4, 8] was 2.813%, the CL/F [4, 8] was 146.9 L/h and the “DN AUC0-inf” value [4, 8] was 17.44 ± [ng*hr/mL]/mg. The “DN AUC0-t” value [4, 8] was 16.94 ± [ng*hr/mL]/mg, the “DN Cmax” value [4, 8] was 4.649 ± [ng/mL]/mg and the Kel [4, 8] was 0.06152 ± 1 h⁻¹. The Tmax [4, 8] was 1.000 h, the AUC % extrap [4, 9] was 2.727% and the CL/F [4, 9] was 312.3 L/h. The “DN AUC0-inf” value [4, 9] was 16.89 ± [ng*hr/mL]/mg, the “DN AUC0-t” value [4, 9] was 16.53 ± [ng*hr/mL]/mg and the “DN Cmax” value [4, 9] was 4.858 ± [ng/mL]/mg. The Kel [4, 9] was 0.05057 ± 1 h⁻¹, the Tmax ([4]; human, inhaled, Administration B: single 3 mg, oral inhalation, low-flow nasal cannula oxygen 6 L/min, read-out: Tmax) was 1 h and the Tmax ([4]; human, inhaled, Administration D2: single 9 mg, oral inhalation, high-flow nasal cannula oxygen 50 L/min, read-out: Tmax) was 1 h. For the same compound, the AUC(0-inf) [4, 10] was 7.76 ng·h/mL, the Cmax [4, 10] was 1.68 ng/mL and the AUC(0-t) ([4]; human, inhaled or intranasal, 3 mg, Administration A: single 3 mg, nasal inhalation via high-flow nasal cannula circuit, oxygen 30 L/min, read-out: AUC0-24) was 7.06 ng·h/mL. For the same compound, the AUC(0-t) ([4]; human, inhaled or intranasal, 3 mg, Administration A: single 3 mg, nasal inhalation via high-flow nasal cannula circuit, oxygen 30 L/min, read-out: AUC0-t) was 7.44 ng·h/mL, the Vd/F [4, 10] was 7400 L and the half-life [4, 10] was 10.2 h. For the same compound, the AUC(0-inf) [4, 11] was 54 ng·h/mL, the Cmax [4, 11] was 14 ng/mL and the AUC(0-t) ([4]; human, inhaled, 3 mg, Administration B: single 3 mg, oral inhalation, low-flow nasal cannula oxygen 6 L/min, read-out: AUC0-24) was 49.1 ng·h/mL. The AUC(0-t) ([4]; human, inhaled, 3 mg, Administration B: single 3 mg, oral inhalation, low-flow nasal cannula oxygen 6 L/min, read-out: AUC0-t) was 52.4 ng·h/mL, the Vd/F [4, 11] was 1770 L and the half-life [4, 11] was 12.9 h. For the same compound, the AUC(0-inf) [4, 12] was 54.7 ng·h/mL, the Cmax [4, 12] was 14.2 ng/mL and the AUC(0-t) ([4]; human, inhaled, 3 mg, Administration C: single 3 mg, oral inhalation, high-flow nasal cannula oxygen 30 L/min, read-out: AUC0-24) was 49.9 ng·h/mL. It also gave an AUC(0-t) ([4]; human, inhaled, 3 mg, Administration C: single 3 mg, oral inhalation, high-flow nasal cannula oxygen 30 L/min, read-out: AUC0-t) of 53.1 ng·h/mL, a Vd/F [4, 12] of 3920 L and a half-life [4, 12] of 15.1 h. It also gave an AUC(0-inf) [4, 13] of 52.3 ng·h/mL, a Cmax [4, 13] of 13.9 ng/mL and an AUC(0-t) ([4]; human, inhaled, 3 mg, Administration D1: single 3 mg, oral inhalation, high-flow nasal cannula oxygen 50 L/min, read-out: AUC0-24) of 47.9 ng·h/mL. For the same compound, the AUC(0-t) ([4]; human, inhaled, 3 mg, Administration D1: single 3 mg, oral inhalation, high-flow nasal cannula oxygen 50 L/min, read-out: AUC0-t) was 50.8 ng·h/mL, the Vd/F [4, 13] was 1780 L and the half-life [4, 13] was 12.3 h. It also gave an AUC(0-inf) [4, 14] of 152 ng·h/mL, a Cmax [4, 14] of 43.7 ng/mL and an AUC(0-t) ([4]; human, inhaled, 9 mg, Administration D2: single 9 mg, oral inhalation, high-flow nasal cannula oxygen 50 L/min, read-out: AUC0-24) of 141 ng·h/mL. The AUC(0-t) ([4]; human, inhaled, 9 mg, Administration D2: single 9 mg, oral inhalation, high-flow nasal cannula oxygen 50 L/min, read-out: AUC0-t) was 149 ng·h/mL, the Vd/F [4, 14] was 7310 L and the half-life [4, 14] was 14.1 h. The “plasma concentration, 9 mg (Administration D2) vs 3 mg (Administration D1)” value ([4]; oral inhalation, high-flow 50 L/min, FIG. 6) was “approximately a dose-proportional increase in plasma concentration”.
